Laboratory results taken from US20060263760A1, “Screening method of substance with antidepressant action” (THE UNIVERSITY OF TOKYO, priority 2005, published 2006).

Test system: nerve cells in hippocampus CA1 region of hippocampus sections
Experiment: long-term potentiation of excitatory postsynaptic potential (EPSP) in hippocampus sections, accumulated potential with single glass electrode
Format: cell-based, rat
Conditions: for EPSP reaction (ratio of largest slope value of accumulated potential to basal slope value defined as 100%): read 60 minutes after stimulation
Experimental: A specific example of the assessment of substances with antidepressant actions by the screening method is described below. At the cell preparation step in the Example, the brain hippocampus of an adult rat was cut vertically along the longitudinal axis using vibratome (DSK ZERO1, manufactured by DOUSAKA EM K.K), to prepare plural longitudinal cross- sectional sections of a thickness of 400 μm. In this Example, a part of the hippocampus sections is prepared as a candidate substance treatment group, while another part of the hippocampus sections is prepared as a control treatment group and an additional part of the hippocampus sections is prepared as non-treatment group. These hippocampus sections were immersed in an artificial cerebrospinal fluid sufficiently saturated with a mixture gas of oxygen and carbon dioxide (95% oxygen gas, 5% carbon dioxide gas) and left to stand at room temperature for 1.5 hours or more under the purge of the mixture gas from the above over the hippocampus sections. Thereafter, the electrophysiological response was assayed as described below. As the artificial cerebrospinal fluid, an aqueous solution containing 124 mM NaCl, 1.25 mM NaH2PO4.2H2O, 5 mM KCl, 2 mM MgSO4.7H2O, 2 mM CaCl2, 22 mM NaHCO3, and 10 mM glucose was used. […] At the cell preparation step, additionally, the presynaptic fibers in the CA1 regions of the hippocampus sections were repeatedly stimulated at an interval of 20 seconds, using the stimulation electrode, while excitatory postsynaptic potential induced by the electric stimulation was recorded as accumulated potential over about 30 minutes. […] Therefore, it was determined to assess the dimension of the slope in the part M with the most rapid change of the accumulated potential on the stimulation [namely, the largest slope on the earlier side of the assay time period of accumulated potential waveform (on the left side)] […]

`C[C@]12C[C@H](O)[C@H]3[C@@H](CCC4=CC(=O)CC[C@@]43C)[C@@H]1CC[C@@H]2C(=O)CO` [corticosteron] was tested, and the “reduction of the level of the long-term potentiation [dimension (%) of EPSP reaction]” value (contact to corticosteron 1 μM versus non-treatment group, 60 minutes after high-frequency stimulation) was “about 20%” and the “EPSP reaction (ratio of largest slope value of accumulated potential to basal slope value defined as 100%)” value (corticosteron 1 μM alone perfused 30 minutes before 100-Hz high-frequency stimulation, non-treatment group about 130%) was “about 110%”.

`C[C@]12CC[C@@H]3c4ccc(O)cc4CC[C@H]3[C@@H]1CC[C@@H]2O` [estradiol] was tested, and the “EPSP reaction (ratio of largest slope value of accumulated potential to basal slope value defined as 100%)” value (estradiol 1 nM together with corticosteron 1 μM perfused 30 minutes before 100-Hz high-frequency stimulation) was “about 130%”.
